The values that follow come from PubChem BioAssay AID200 (DTP/NCI, 2004).

Values joined by “and” are separate entries in the source; they are usually repeats but may differ in a detail not shown here. Equal values may be shown once. Toxic doses and inconclusive results are not listed.

In the experiment the test system is B6C3F1 mice, B16 melanoma ip, median survival T/C. Put plainly: NCI In Vivo Anticancer Drug Screen. Data for tumor model B16 Melanoma (intraperitoneal) in B6C3F1 mice. As to conditions: endpoint: median survival time, higher = longer survival. The method in brief: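 Values are T/C ratios: the measurement in treated animals divided by that in vehicle-treated controls, using survival or tumor size in mice carrying transplantable tumors.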

Where [1] appears, read: dose: 12.5 mg/kg/injection, schedule: Q01DX009 (ip), vehicle: saline.
[2] abbreviates: dose: 25.0 mg/kg/injection, schedule: Q01DX009 (ip), vehicle: saline.
The mark [3] stands for this setting: dose: 50.0 mg/kg/injection, schedule: Q01DX009 (ip), vehicle: saline.
The mark [4] stands for this setting: dose: 100.0 mg/kg/injection, schedule: Q01DX009 (ip), vehicle: saline.
Where [5] appears, read: dose: 200.0 mg/kg/injection, schedule: Q01DX009 (ip), vehicle: saline.
Where [6] appears, read: dose: 100.0 mg/kg/injection, schedule: Q01DX009 (ip), vehicle: Klucel (hydroxypropylcellulose) (HPC).
The mark [7] stands for this setting: dose: 200.0 mg/kg/injection, schedule: Q01DX009 (ip), vehicle: Klucel (hydroxypropylcellulose) (HPC).
The mark [8] stands for this setting: dose: 25.0 mg/kg/injection, schedule: Q01DX009 (ip), vehicle: Klucel (hydroxypropylcellulose) (HPC).
Setting [9] is: dose: 50.0 mg/kg/injection, schedule: Q01DX009 (ip), vehicle: Klucel (hydroxypropylcellulose) (HPC).
The mark [10] stands for this setting: dose: 50.0 mg/kg/injection, schedule: Q01DX009 (ip), vehicle: water.
Setting [11] is: dose: 100.0 mg/kg/injection, schedule: Q01DX009 (ip), vehicle: water.
[12] abbreviates: dose: 200.0 mg/kg/injection, schedule: Q01DX009 (ip), vehicle: water.
Where [13] appears, read: dose: 6.25 mg/kg/injection, schedule: Q01DX009 (ip), vehicle: water.
Where [14] appears, read: dose: 12.5 mg/kg/injection, schedule: Q01DX009 (ip), vehicle: water.
Where [15] appears, read: dose: 25.0 mg/kg/injection, schedule: Q01DX009 (ip), vehicle: water.

`O=CC(NC(=O)N(CCF)N=O)C(O)C(O)C(O)CO` (stereo not given): the T/C by setting is: (dose: 30.0 mg/kg/injection, schedule: Q01DX001 (ip), vehicle: saline) 169 % of control; (dose: 60.0 mg/kg/injection, schedule: Q01DX001 (ip), vehicle: saline) 210 % of control; (dose: 120.0 mg/kg/injection, schedule: Q01DX001 (ip), vehicle: saline) 204 % of control.

With `Cn1cnc([N+](=O)[O-])c1Sc1ncn[nH]1`, the T/C reads like this: under setting [1], 108 % of control; (dose: 12.5 mg/kg/injection, schedule: Q01DX009 (ip), vehicle: suspension in saline) 109 % of control; under setting [2], 102 % of control; (dose: 25.0 mg/kg/injection, schedule: Q01DX009 (ip), vehicle: suspension in saline) 115 % of control; under setting [3], 108 % of control; (dose: 50.0 mg/kg/injection, schedule: Q01DX009 (ip), vehicle: suspension in saline) 100 % of control. For the same molecule, the T/C under setting [4] was 108 % of control; the T/C (dose: 100.0 mg/kg/injection, schedule: Q01DX009 (ip), vehicle: suspension in saline) was 101 % of control; the T/C under setting [5] is 108 % of control; the T/C (dose: 200.0 mg/kg/injection, schedule: Q01DX009 (ip), vehicle: suspension in saline) was 102 % of control.

Turning to `CN(C)/N=N/c1[nH]cnc1C(N)=O.[Cl][Cu][Cl]`, the T/C runs as follows: (dose: 0.5 mg/kg/injection, schedule: Q01DX009 (ip), vehicle: water) 106 % of control; (dose: 1.0 mg/kg/injection, schedule: Q01DX009 (ip), vehicle: water) 106 % of control; (dose: 2.0 mg/kg/injection, schedule: Q01DX009 (ip), vehicle: water) 115 % of control; (dose: 4.0 mg/kg/injection, schedule: Q01DX009 (ip), vehicle: water) 109 % of control; (dose: 8.0 mg/kg/injection, schedule: Q01DX009 (ip), vehicle: water) 109 % of control.

As to `O=C(NC(Cc1cn(Cc2ccccc2)cn1)C(=O)O)OCC1c2ccccc2-c2ccccc21` (stereo not given), the T/C was 111 % of control under setting [6]; 103 % of control under setting [7]; 115 % of control (dose: 400.0 mg/kg/injection, schedule: Q01DX009 (ip), vehicle: Klucel (hydroxypropylcellulose) (HPC)).

On to `CONc1ccn(C2OC(CO)C(O)C2O)c(=O)n1` (stereo not given), for which the T/C runs as follows: under setting [1], 92 % of control and 98 % of control; under setting [2], 101 % of control and 102 % of control; under setting [3], 103 % of control and 104 % of control; under setting [4], 91 % of control and 106 % of control; under setting [5], 113 % of control and 91 % of control; (dose: 400.0 mg/kg/injection, schedule: Q01DX009 (ip), vehicle: saline) 89 % of control and 94 % of control.

As for `COc1ccc2c(c1)-c1nn(CCCN(C)C)c3ccc([N+](=O)[O-])c(c13)N2`, the T/C runs as follows: (dose: 1.56 mg/kg/injection, schedule: Q01DX009 (ip), vehicle: water) 110 % of control; (dose: 3.12 mg/kg/injection, schedule: Q01DX009 (ip), vehicle: water) 116 % of control and 122 % of control.

As to `CC(C)(C)OC(=O)NC(CC(=O)OCc1ccccc1)C(=O)ON1C(=O)CCC1=O` (stereo not given), the T/C under setting [8] is 93 % of control, the T/C under setting [9] was 91 % of control and the T/C under setting [6] is 95 % of control.

Consider `CC(=O)NO`, for which the T/C reads like this: under setting [10], 89 % of control; under setting [11], 102 % of control; under setting [12], 100 % of control; (dose: 400.0 mg/kg/injection, schedule: Q01DX009 (ip), vehicle: water) 112 % of control.

`Nc1cc(Cl)c2[nH]cnc2n1`: the T/C reads like this: under setting [13], 102 % of control; (dose: 12.5 mg/kg/injection, schedule: Q01DX009 (ip), vehicle: distilled water + Tween-80) 95 % of control; under setting [14], 106 % of control; (dose: 25.0 mg/kg/injection, schedule: Q01DX009 (ip), vehicle: distilled water + Tween-80) 88 % of control; under setting [15], 110 % of control; (dose: 50.0 mg/kg/injection, schedule: Q01DX009 (ip), vehicle: distilled water + Tween-80) 99 % of control. The T/C by setting is: under setting [10], 98 % of control; (dose: 100.0 mg/kg/injection, schedule: Q01DX009 (ip), vehicle: distilled water + Tween-80) 96 % of control; under setting [11], 100 % of control; under setting [12], 100 % of control.

On to `CC(C)(C)OC(=O)NC(Cc1ccccc1)C(=O)O` (stereo not given), for which the T/C is 104 % of control under setting [9], 88 % of control under setting [6] and 100 % of control under setting [7].

`COC1=C(C)C(=O)C2=C(C1=O)C(CO)N1C(C#N)C3CC4C(C1C2N1CCOC41)N3C` (stereo not given): the T/C is 105 % of control (dose: 0.06 mg/kg/injection, schedule: Q01DX009 (ip), vehicle: acid diluted with saline); 98 % of control (dose: 0.12 mg/kg/injection, schedule: Q01DX009 (ip), vehicle: acid diluted with saline); 102 % of control (dose: 0.12 mg/kg/injection, schedule: Q01DX009 (ip), vehicle: saline + alcohol); 111 % of control (dose: 0.25 mg/kg/injection, schedule: Q01DX009 (ip), vehicle: acid diluted with saline); 109 % of control and 104 % of control (dose: 0.25 mg/kg/injection, schedule: Q01DX009 (ip), vehicle: saline + alcohol); 116 % of control and 103 % of control (dose: 0.5 mg/kg/injection, schedule: Q01DX009 (ip), vehicle: acid diluted with saline). The T/C (dose: 0.5 mg/kg/injection, schedule: Q01DX009 (ip), vehicle: saline + alcohol) was 112 % of control and 113 % of control and 118 % of control; the T/C (dose: 1.0 mg/kg/injection, schedule: Q01DX009 (ip), vehicle: acid diluted with saline) is 108 % of control and 113 % of control; the T/C (dose: 1.0 mg/kg/injection, schedule: Q01DX009 (ip), vehicle: saline + alcohol) is 109 % of control and 121 % of control.

On to `O=C1CC(c2ccc(Cl)cc2Cl)Oc2ccc(Cl)cc21` (stereo not given), for which the T/C was 100 % of control (dose: 3.13 mg/kg/injection, schedule: Q01DX009 (ip), vehicle: saline with Tween-80); 93 % of control (dose: 6.25 mg/kg/injection, schedule: Q01DX009 (ip), vehicle: saline with Tween-80); 88 % of control (dose: 12.5 mg/kg/injection, schedule: Q01DX009 (ip), vehicle: saline with Tween-80); 100 % of control (dose: 25.0 mg/kg/injection, schedule: Q01DX009 (ip), vehicle: saline with Tween-80).

As for `CCOC(=O)N(CCCCCCNC(c1ccccc1)S(=O)(=O)O)c1ccccc1` (stereo not given), the T/C runs as follows: under setting [8], 96 % of control; under setting [9], 100 % of control; under setting [6], 100 % of control.

In the case of `Cc1c(-c2ccc(-c3ccccc3F)cc2)nc2ccc(F)cc2c1C(=O)O`, the T/C runs as follows: under setting [13], 118 % of control and 102 % of control; under setting [14], 107 % of control; under setting [15], 124 % of control.

Consider `CCOc1ccccc1C(=O)Nc1ccc(Br)cc1`, for which the T/C was 117 % of control under setting [9] and 117 % of control under setting [7].
